From patent US9181255B2, “Fused heteroaromatic pyrrolidinones as SYK inhibitors” (Takeda Pharmaceutical Company Limited, priority 2009, dated 2015) come the findings set out here.

The structures appear in SMILES notation.

This test has as its target SYK (Homo sapiens, UniProt P43405). The test can be described thus: SYK inhibition assay: SYK-mediated phosphorylation of FAM-labeled substrate (Caliper microfluidic). The following applies: read-out: SYK Inhibition (pIC50) (converted). It counts as biochemical.
With `Cc1cc(-c2nc(N[C@@H]3CCOC[C@@H]3N)c(F)c3c2C(=O)NC3)sn1` [Example 132, 6-((3R,4R)-3-Aminotetrahydro-2H-pyran-4-ylamino)-7-fluoro-4-(3-methylisothiazol-5-yl)-1H-pyrrolo[3,4-c]pyridin-3(2H)-one], the IC50 was 3.98 nM.

Regarding `N[C@H]1CCCC[C@H]1Nc1nc(-c2cnn(C(F)F)c2)c2c(c1F)CNC2=O` [Example 62, 6-((1R,2S)-2-Aminocyclohexylamino)-4-(1-(difluoromethyl)-1H-pyrazol-4-yl)-7-fluoro-1H-pyrrolo[3,4-c]pyridin-3(2H)-one], the IC50 was 10 nM.

For the molecule `N[C@H]1CCCC[C@H]1Nc1nc2c(c(-c3ccccc3)n1)C(=O)NC2` [Example 16, 2-((1R,2S)-2-Aminocyclohexylamino)-4-phenyl-6,7-dihydro-5H-pyrrolo[3,4-d]pyrimidin-5-one], the IC50 was 3160 nM.

As to `Cc1cccc(Nc2nc(N[C@@H]3CCOC[C@@H]3N)cc3c2C(=O)NC3)c1` [Example 85, 6-((3R,4R)-3-Aminotetrahydro-2H-pyran-4-ylamino)-4-(m-tolylamino)-1H-pyrrolo[3,4-c]pyridin-3(2H)-one], the IC50 is 3.98 nM.

For `N[C@H]1CCCC[C@H]1Nc1cc2c(c(Nc3ccc4cn[nH]c4c3)n1)C(=O)NC2` [Example 23, 4-(1H-Indazol-6-ylamino)-6-((1R,2S)-2-aminocyclohexylamino)-1H-pyrrolo[3,4-c]pyridin-3(2H)-one], the IC50 is 2 nM.

Consider `Cc1csc(-c2nc(N[C@@H]3CCOC[C@@H]3N)c(F)c3c2C(=O)NC3)c1` [Example 104, 6-((3R,4R)-3-Aminotetrahydro-2H-pyran-4-ylamino)-7-fluoro-4-(4-methylthiophen-2-yl)-1H-pyrrolo[3,4-c]pyridin-3(2H)-one], for which the IC50 was 2 nM.

Consider `Cc1cccc(Nc2nc(NCC(C)(C)N)nc3c2C(=O)NC3)c1` [Example 41, 2-(2-Amino-2-methylpropylamino)-4-(m-tolylamino)-6,7-dihydro-5H-pyrrolo[3,4-c]pyrimidin-5-one], for which the IC50 is 1260 nM.

Regarding `N[C@H]1CCCC[C@H]1Nc1nc(-c2cnn(C3CC3)c2)c2c(c1F)CNC2=O` [Example 63, 6-((1R,2S)-2-Aminocyclohexylamino)-4-(1-cyclopropyl-1H-pyrazol-4-yl)-7-fluoro-1H-pyrrolo[3,4-c]pyridin-3(2H)-one], the IC50 is 7.94 nM.

As to `Cn1cc(-c2nc(-c3cnn(C)c3)c3c(c2F)CNC3=O)cn1` [Example 98, 7-Fluoro-4,6-bis(1-methyl-1H-pyrazol-4-yl)-1H-pyrrolo[3,4-c]pyridin-3(2H)one], the IC50 is 2000 nM.

`CC(C)C[C@@H](Nc1nc(-c2ccsc2)c2c(c1F)CNC2=O)C(N)=O` [Example 110, (R)-2-(7-Fluoro-3-oxo-4-(thiophen-3-yl)-2,3-dihydro-1H-pyrrolo[3,4-c]pyridin-6-ylamino)-4-methylpentanamide]: the IC50 was 50.1 nM.

As for `Cc1cccc(Nc2nc(N[C@@H]3CCCC[C@@H]3N)c(-c3ccnn3C)c3c2C(=O)NC3)c1` [Example 84, 6-((1R,2S)-2-Aminocyclohexylamino)-7-(1-methyl-1H-pyrazol-5-yl)-4-(m-tolylamino)-1H-pyrrolo[3,4-c]pyridin-3(2H)-one], the IC50 is 20 nM.

Take `Nc1ncc(-c2nc(N[C@@H]3CCCC[C@@H]3N)c(F)c3c2C(=O)NC3)s1` [Example 112, 6-((1R,2S)-2-Aminocyclohexylamino)-4-(2-aminothiazol-5-yl)-7-fluoro-1H-pyrrolo[3,4-c]pyridin-3(2H)-one]: the IC50 was 2 nM.

As to `Cc1cccc(Nc2nc(N(C)CCN)nc3c2C(=O)NC3)c1` [Example 43, 2-((2-Aminoethyl)(methyl)amino)-4-(m-tolylamino)-6,7-dihydro-5H-pyrrolo[3,4-d]pyrimidin-5-one], the IC50 was 5010 nM.

With `CCn1cc(-c2nc(N[C@@H]3CCCC[C@@H]3N)cc3c2C(=O)NC3)cn1` [Example 59, 6-((1R,2S)-2-Aminocyclohexylamino)-4-(1-ethyl-1H-pyrazol-4-yl)-1H-pyrrolo[3,4-c]pyridin-3(2H)-one], the IC50 is 79.4 nM.

On to `N[C@@H]1[C@H](Nc2nc(-c3cnn(C4CC4)c3)c3c(c2F)CNC3=O)CCCC1(F)F` (relative stereo) [Example 69, 6-(cis-2-amino-3,3-difluorocyclohexylamino)-4-(1-cyclopropyl-1H-pyrazol-4-yl)-7-fluoro-1H-pyrrolo[3,4-c]pyridin-3(2H)-one], for which the IC50 was 158 nM.

Take `CC(C)C[C@@H](Nc1nc(-c2coc3ccccc23)c2c(c1F)CNC2=O)C(N)=O` [Example 73, (R)-2-(4-(Benzofuran-3-yl)-7-fluoro-3-oxo-2,3-dihydro-1H-pyrrolo[3,4-c]pyridin-6-ylamino)-4-methylpentanamide]: the IC50 was 7.94 nM.

With `N[C@H]1COCC[C@H]1Nc1nc(-c2cccs2)c2c(c1F)CNC2=O` [Example 127, 6-((3R,4R)-3-Aminotetrahydro-2H-pyran-4-ylamino)-7-fluoro-4-(thiophen-2-yl)-1H-pyrrolo[3,4-c]pyridin-3(2H)-one], the IC50 was 6.31 nM.

As to `COC[C@H](N)CNc1cc2c(c(-c3cnn(C)c3)n1)C(=O)NC2` [Example 91, (R)-6-(2-Amino-3-methoxypropylamino)-4-(1-methyl-1H-pyrazol-4-yl)-1H-pyrrolo[3,4-c]pyridin-3(2H)-one], the IC50 is 251 nM.

For `CCN1CCN(c2nc3c(c(Nc4cccc(C)c4)n2)C(=O)NC3)CC1` [Example 9, 2-(4-Ethylpiperazin-1-yl)-4-(m-tolylamino)-6,7-dihydro-5H-pyrrolo[3,4-d]pyrimidin-5-one], the IC50 was 7940 nM.

In the case of `N[C@H]1CCCC[C@H]1Nc1nc(-c2csc3ccccc23)c2c(c1F)CNC2=O` [Example 52, 6-((1R,2S)-2-aminocyclohexylamino)-4-(benzo[b]thiophen-3-yl)-7-fluoro-1H-pyrrolo[3,4-c]pyridin-3(2H)-one], the IC50 was 63.1 nM.

As to `CC(C)C[C@@H](Nc1nc(-c2ccco2)c2c(c1F)CNC2=O)C(N)=O` [Example 113, (R)-2-(7-Fluoro-4-(furan-2-yl)-3-oxo-2,3-dihydro-1H-pyrrolo[3,4-c]pyridin-6-ylamino)-4-methylpentanamide], the IC50 is 200 nM.

Regarding `N[C@H]1CCCC[C@H]1Nc1cc2c(c(-c3cnn(C4CC4)c3)n1)C(=O)NC2` [Example 61], the IC50 was 63.1 nM.

Take `CN[C@H]1CCCC[C@H]1Nc1nc2c(c(Nc3cccc(C)c3)n1)C(=O)NC2` [Example 38, 2-((1R,2S)-2-(Methylamino)cyclohexylamino)-4-(m-tolylamino)-6,7-dihydro-5H-pyrrolo[3,4-d]pyrimidin-5-one]: the IC50 is 631 nM.

For `Cn1cc(-c2nc(N[C@@H]3CCCC[C@@H]3N)c(Cl)c3c2C(=O)NC3)cn1` [Example 29, 6-((1R,2S)-2-Aminocyclohexylamino)-7-chloro-4-(1-methyl-1H-pyrazol-4-yl)-1H-pyrrolo[3,4-c]pyridin-3(2H)-one], the IC50 is 3.16 nM.

With `N[C@H]1CCCC[C@H]1Nc1nc2c(c(-c3cnn(Cc4ccccc4)c3)n1)C(=O)NC2` [Example 19, 2-((1R,2S)-2-Aminocyclohexylamino)-4-(1-benzyl-1H-pyrazol-4-yl)-6,7-dihydro-5H-pyrrolo[3,4-d]pyrimidin-5-one], the IC50 is 251 nM.

Consider `Cn1cc(-c2nc(N[C@@H]3CCCC(F)(F)[C@@H]3N)c(F)c3c2C(=O)NC3)cn1` (relative stereo) [Example 67, 6-(cis-2-Amino-3,3-difluorocyclohexylamino)-7-fluoro-4-(1-methyl-1H-pyrazol-4-yl)-1H-pyrrolo[3,4-c]pyridin-3(2H)-one], for which the IC50 is 39.8 nM.

As to `CC(C)C[C@@H](Nc1nc(-c2ccns2)c2c(c1F)CNC2=O)C(N)=O` [Example 119, (R)-2-(7-Fluoro-4-(isothiazol-5-yl)-3-oxo-2,3-dihydro-1H-pyrrolo[3,4-c]pyridin-6-ylamino)-4-methylpentanamide], the IC50 is 15.8 nM.
